Measurements taken from US20190315711A1 (eXIthera Pharmaceuticals, Inc., priority 2016, published 2019).
Values after ≈ are worked out from the molar mass of the structure shown.

Key:
[1] = Plasma protein binding by equilibrium dialysis; format: in vitro ADME; conditions: both sexes, pooled plasma, pH 7.4, human plasma protein binding, read-out: PPB
Experimental: The following procedure was used to determine the plasma protein binding of a test compound in pooled plasma from human (mixed gender) via equilibrium dialysis in a 96-well plate format. The dialysate compartment was loaded with phosphate-buffered saline (pH 7.4) and the sample side was loaded with plasma spiked with the test compound at a concentration of 10 μM. After loading, samples were covered and incubated for 4 hours at 37° C. After incubation, each compartment was sampled, diluted with acetonitrile/buffer and centrifuged. The supernatants were analyzed by HPLC-MS/MS. The analyte peak areas obtained from HPLC-MS/MS analysis of each sample were used to calculate protein binding according to the following equation (Equation 4):
where: AREAp=Peak area of analyte in protein matrix; AREAb=Peak area of analyte in buffer. The amount measured in the plasma compartment included both free and bound drug, while that on the buffer side represented free drug only; the differences were used to calculate the percentage plasma protein bound. Three reference compounds were tested in each assay: acebutolol, quinidine and warfarin.

[2] = Caco-2 cell permeability assay (A-B and B-A); format: in vitro ADME; conditions: human; for Papp A→B at 60 min, 10 μM: A-B direction; for Papp B→A at 40 min, 10 μM: B-A direction
Experimental: The following procedure was used to determine the ability of a test compound to cross Caco-2 cells (human intestinal epithelial cells derived from a colorectal adenocarcinoma). The cells were seeded at 1×10^5 cells/cm^2 in 96-well Multiscreen™ plates (Millipore). Permeability assays were performed with the cells at days 21-25 post-seeding. Cells are typically used for 15 consecutive passages in culture.
This assay can be performed in either the apical to basolateral (A−B) or basolateral to apical (B−A) direction. The test compound was prepared at 10 μM in HBSS-MES (pH 6.5) or HBSS-HEPES (pH 7.4) with a final DMSO concentration of 1%. The working solution was then centrifuged and the supernatant added to the donor side. The assay plate was incubated at 37° C. with gentle shaking for 60 min or 40 min for the A−B or B−A assay, respectively. Samples were aliquoted from the donor side at time zero and the end point, and from the receiver side at the end point.
Reference compounds, propranolol (highly permeable), labetalol (moderately permeable), ranitidine (poorly permeable), and colchicine (P-glycoprotein substrate) were included in each assay.
Samples are analyzed by HPLC-MS/MS using selected reaction monitoring. The HPLC system consists of a binary LC pump with autosampler, a C-18 column, and a gradient.
The apparent permeability coefficient (Papp) of the test compound (Equation 2) and its recovery (Equation 3) are calculated as follows: […]
wherein A is the surface area of the cell monolayer (0.11 cm^2), C is concentration of the test compound expressed as peak area, D denotes donor, and R is receiver. “0”, “mid,” and “end” denote time at zero, mid-point, and end of the incubation, respectively. At is the incubation time. V is the volume of the donor or receiver.
This is most likely due to non-specific binding or degradation.

human Factor XIa = human Factor XIa (Homo sapiens, UniProt P03951); assay: Factor XIa enzyme inhibition assay (dose response, fluorogenic AMC substrate); format: biochemical; design: Enzyme: Factor XIa; conditions: purified enzyme; substrate 50 μM, enzyme 0.25 nM; read-out: hFXIa IC50
Method in brief: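 Fluorogenic assay in 20 mM Hepes pH 7.4, 150 mM NaCl, 0.02% Tween 20 with 0.25 nM enzyme and 50 μM Glp-Pro-Arg-AMC (final). Fluorescence read every minute for 30 min at 30 °C after serial two-fold compound dilution; IC50 from four-parameter Hill fit of dose-response curves.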

[3] = Aqueous solubility in PBS pH 7.4; format: physicochemical; conditions: phosphate buffered saline, aqueous buffer, kinetic from dmso stock, PBS pH 7.4, room temperature
Experimental: The following procedure was used to determine the aqueous solubility of a test compound in phosphate buffered saline (PBS—NaCl 137 mM, KCl 2.7 mM, Na2HPO4 8.1 mM, KH2PO4 1.5 mM, pH 7.4) in 96-well plate format by HPLC-UV/VIS analysis. The test compound was prepared at 200 μM in PBS from a 10 mM DMSO stock solution. The final DMSO concentration was 2%. The PBS buffer samples were mixed thoroughly followed by incubation at room temperature for 24 h. At the end of the incubation, the PBS buffer samples were centrifuged and supernatants analyzed by HPLC. The aqueous solubility (μM) of the test compound in PBS was determined by comparing the peak area of the principal peak in the calibration standard (200 μM) with the peak area of the corresponding peak in each of the PBS samples. The range of the assay was approximately 0.5 μM to 200 μM. The reference compounds used in each assay were metoprolol, rifampicin, ketoconazole, phenytoin, haloperidol, simvastatin, diethylstilbestrol, and tamoxifen ranking from fully soluble (200 μM) to poorly soluble (<1 μM).

Trypsin = target: T1, Trypsin (Bos taurus, UniProt P00760); assay: Dose response assay for protease inhibitors: trypsin; format: biochemical; conditions: ratio versus Factor XIa
T1 construct: gene PRSS1
T1 sequence (P00760 24-246): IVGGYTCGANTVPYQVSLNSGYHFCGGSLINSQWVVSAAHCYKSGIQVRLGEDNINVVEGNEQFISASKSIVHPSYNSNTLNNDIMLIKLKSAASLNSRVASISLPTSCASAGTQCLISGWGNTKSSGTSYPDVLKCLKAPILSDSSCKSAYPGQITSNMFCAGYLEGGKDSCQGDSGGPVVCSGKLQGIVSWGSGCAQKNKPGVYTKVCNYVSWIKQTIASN
Experimental: (§1) • Assay buffer: 20 mM Hepes, pH 7.4; 150 mM NaCl; 0.02% Tween 20 • Compounds: 10 mM stocks in DMSO • Substrate: 20 mM Glp-Pro-Arg-AMC, 25 mg/2.3 mL H2O (store at +4° C.) [Factor XIa, thrombin, and trypsin] • 20 mM Pro-Phe-Arg-AMC (Bachem I-1295), 25 mg/2.2 mL H2O or Boc-Leu-Gly-Arg-AMC (Bachem I-1105), 25 mg/2.07 mL H2O (store at +4° C.) [Factor Xa] • Enzyme: Factor XIa; 0.25 M in 50% glycerol (20 μg/mL) • Trypsin; 0.2 μM in 50% glycerol (4.8 μg/mL) • Thrombin; 0.2 μM in 50% glycerol (7.34 μg/mL) • Factor Xa; 0.2 μM in 50% glycerol (9.2 μg/mL)
(§2) • 1. Dilute the substrate to 100 μM in assay buffer (30 μL/6 mL). The enzyme is diluted to 0.5 nM just prior to use (12 L/6 mL for Factor XIa; 15 μL/6 mL for all of the rest.) • 2. Pipette 50 μL of substrate into each well of the 96 well (12×8) microtiter plate. (Column 1 is used as the 100% activity control and receives no compound, and Column 12 is the blank and receives no enzyme.) Add an additional 46 μL to column 2. • 3. Pipette 4 μL of each compound into the appropriate well in column 2 of the plate (unknowns assayed in triplicate, standard assayed in duplicate). The final compound concentration will be 1/50th of the stock. • 4. Serially two-fold dilute the compound by mixing the sample in column 2, removing 50 μL to the next well (column 3), mix and remove to column 4, etc. until column 11. After mixing column 11, remove 50 μL and discard. • 5. Pipette 50 μL of buffer into column 12. Initiate the reaction by adding 50 μL of enzyme solution to each well of columns 1-11 as rapidly as possible. • 6. Read the plate in a spectrophotometer (SpectraMax) at 30° C., wherein each well is measured every 60 s for 30 min. For Factor Xa assays, each well is measured every 1 min for a total of 60 min. • 7. For Factor XIa assays, the compounds are assayed, in duplicate, at 3 different starting concentrations, 20, 2, and 0.2 μM; 1:10, 1:100, and 1:1000 dilution of 10 mM stock or at 2, 0.2, and 0.02 μM; 1:100, 1:1000, and 1:10,000 dilution of 10 mM stock. Data for each concentration are combined for graphing and data fitting. • 8. Data can be used both for estimation of IC50 and for estimation of Kon.

Thrombin = target: T2, Thrombin (Homo sapiens, UniProt P00734); assay: Dose response assay for protease inhibitors: thrombin; format: biochemical; conditions: ratio versus Factor XIa
T2 construct: Thrombin; 0.2 μM in 50% glycerol (7.34 μg/mL)
Experimental: as §1, §2

Factor Xa = target: T3, Factor Xa (Homo sapiens, UniProt P00742); assay: Dose response assay for protease inhibitors: Factor Xa; format: biochemical; conditions: ratio versus Factor XIa
T3 construct: Factor Xa; 0.2 μM in 50% glycerol (9.2 μg/mL)
Experimental: as §1, §2

Sequence of human Factor XIa (P03951 388-625 limits assumed): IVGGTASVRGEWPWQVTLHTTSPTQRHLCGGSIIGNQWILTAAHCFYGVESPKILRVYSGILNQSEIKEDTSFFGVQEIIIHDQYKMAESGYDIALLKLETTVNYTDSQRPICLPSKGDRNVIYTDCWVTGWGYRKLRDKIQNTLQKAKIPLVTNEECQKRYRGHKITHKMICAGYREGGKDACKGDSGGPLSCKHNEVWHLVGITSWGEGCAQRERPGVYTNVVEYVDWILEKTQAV
Sequence of human Factor XIa (P03951 19-387 partner limits assumed): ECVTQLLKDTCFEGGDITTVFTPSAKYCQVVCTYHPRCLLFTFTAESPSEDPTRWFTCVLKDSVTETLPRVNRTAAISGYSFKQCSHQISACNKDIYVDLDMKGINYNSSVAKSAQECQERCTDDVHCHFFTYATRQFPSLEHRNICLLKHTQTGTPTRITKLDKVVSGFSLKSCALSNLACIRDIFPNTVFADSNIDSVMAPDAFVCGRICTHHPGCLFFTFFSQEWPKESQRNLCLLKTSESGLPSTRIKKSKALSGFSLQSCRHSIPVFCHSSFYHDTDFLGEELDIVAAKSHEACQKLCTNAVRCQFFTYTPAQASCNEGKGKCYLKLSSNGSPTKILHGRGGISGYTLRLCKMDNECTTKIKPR
T3 sequence (P00742 235-488 limits assumed): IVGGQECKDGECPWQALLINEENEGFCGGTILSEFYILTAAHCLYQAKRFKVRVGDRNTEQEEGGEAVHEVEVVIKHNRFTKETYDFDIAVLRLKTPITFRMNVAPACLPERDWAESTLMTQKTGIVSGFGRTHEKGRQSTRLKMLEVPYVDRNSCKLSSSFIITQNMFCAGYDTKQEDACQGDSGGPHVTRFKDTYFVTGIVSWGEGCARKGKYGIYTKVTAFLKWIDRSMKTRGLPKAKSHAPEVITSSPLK
T3 sequence (P00742 41-179 partner limits assumed): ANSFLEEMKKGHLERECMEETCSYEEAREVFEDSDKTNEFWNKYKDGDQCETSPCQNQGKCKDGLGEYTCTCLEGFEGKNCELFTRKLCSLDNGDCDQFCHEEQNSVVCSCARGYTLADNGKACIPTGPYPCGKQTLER

fraction unbound at 4 h, 10 μM [1]	Papp A→B at 60 min, 10 μM [2]	Papp B→A at 40 min, 10 μM [2]	IC50 (human Factor XIa)	solubility at 24 h [3]	Ratio: Trypsin/FXIa (Trypsin)	Ratio: Thrombin/FXIa (Thrombin)	FXa/FXIa (selectivity ratio) (Factor Xa)	Compound
< 0.05	≤ 10 ×10⁻⁶ cm/s	≤ 10 ×10⁻⁶ cm/s	10 to 100 nM	≤ 10 µM	–	–	–	CN(C(=O)[C@@H]1[C@@H](Cc2ccnc(N)c2)C(=O)N1C(=O)N[C@@H](C1CCCCC1)C(F)(F)F)c1cc(Cl)cc(Cl)c1 [Compound 23]
< 0.05	≤ 10 ×10⁻⁶ cm/s	≤ 10 ×10⁻⁶ cm/s	–	10 to 100 µM (≈ 5.52 to 55.2 µg/mL)	–	–	–	CN(C(=O)[C@@H]1[C@@H](Cc2ccnc(N)c2)C(=O)N1C(=O)N[C@@H](C1CCCCC1)C(F)(F)F)c1cccc(Cl)c1 [Example 11]
–	≤ 10 ×10⁻⁶ cm/s	≤ 10 ×10⁻⁶ cm/s	< 10 nM	–	G (“G” indicates 1-100)	G (“G” indicates 1-100)	H (“H” indicates 101-1000)	CC[C@@H](NC(=O)N1C(=O)[C@H](Cc2ccnc(N)c2)[C@H]1C(=O)N(CC)c1cccc(Cl)c1)C1CCCCC1 [Compound 32]
